Measured values: patent EP4268824A1 (Manros Therapeutics, priority 2022, dated 2023)

Experiment: LogD determined by HPLC
Assay type: physicochemical

chromatographic logD | SMILES
2.49 | CC(C)c1cnc2c(NCc3ccccc3)nc(NCc3nccn3C)nn12 [compound 116, N4-Benzyl-7-isopropyl-N2-[(1-methylimidazol-2-yl)methyl]imidazo[2,1-f][1,2,4]triazine-2,4-diamine]
2.93 | CC(C)c1cnc2c(NCc3ccccc3)nc(NC3CCC(O)CC3)nn12 (stereo not drawn) [compound 63, 4-[[4-(Benzylamino)-7-isopropyl-imidazo[2,1-f][1,2,4]triazin-2-yl]amino]cyclohexanol]
4.42 | COC1CCN(c2nc(NCc3ccccc3)c3ncc(C(C)C)n3n2)C1 (stereo not drawn) [compound 79, N-Benzyl-7-isopropyl-2-(3-methoxypyrrolidin-1-yl)imidazo[2,1-f][1,2,4]triazin-4-amine]
3.12 | CC(C)c1cnc2c(NCc3ccccc3)nc(Nc3nccn3C)nn12 [compound 109, N4-Benzyl-7-isopropyl-N2-(1-methylimidazol-2-yl)imidazo[2,1-f][1,2,4]triazine-2,4-diamine]
3.5 | CC(C)c1cnc2c(NCc3cccnc3)nc(N3CCSCC3)nn12 [compound 84, 7-Isopropyl-N-(3-pyridylmethyl)-2-thiomorpholino-imidazo[2,1-f][1,2,4]triazin-4-amine]
5.47 | CC(C)c1cnc2c(NCc3ccccc3)nc(NC3CCCCC3)nn12 [compound 59, N4-Benzyl-N2-cyclohexyl-7-isopropyl-imidazo[2,1-f][1,2,4]triazine-2,4-diamine]
4.48 | COC1CCC(Nc2nc(NCc3ccccc3)c3ncc(C(C)C)n3n2)CC1 (stereo not drawn) [compound 64, N4-Benzyl-7-isopropyl-N2-(4-methoxycyclohexyl)imidazo[2,1-f][1,2,4]triazine-2,4-diamine]
2.1 | CC(C)c1cnc2c(NCc3ccccc3)nc(NCCCN(C)C)nn12 [compound 5, N4-Benzyl-N2-[3-(dimethylamino)propyl]-7-isopropyl-imidazo[2,1-f][1,2,4]triazine-2,4-diamine]
2.71 | CC(C)c1cnc2c(NCc3ccccc3)nc(N3CCCCC3CCO)nn12 (stereo not drawn) [compound 87, 2-[1-[4-(Benzylamino)-7-isopropyl-imidazo[2,1-f][1,2,4]triazin-2-yl]-2-piperidyl]ethanol]
4.13 | CSCCNc1nc(NCc2ccccc2)c2ncc(C(C)C)n2n1 [compound 3, N4-Benzyl-7-isopropyl-N2-(2-methylsulfanylethyl)imidazo[2,1-f][1,2,4]triazine-2,4-diamine]
2.29 | CC(C)c1cnc2c(NCc3cccnc3)nc(N3CCC(O)C3)nn12 (stereo not drawn) [compound 77, 1-[7-Isopropyl-4-(3-pyridylmethylamino)imidazo[2,1-f][1,2,4]triazin-2-yl]pyrrolidin-3-ol]
3.04 | CO[C@H]1CCCC1Nc1nc(NCc2cccnc2)c2ncc(C(C)C)n2n1 (stereo partly drawn) [compound 68, 7-Isopropyl-N2-[(2S)-2-methoxycyclopentyl]-N4-(3-pyridylmethyl)imidazo[2,1-f][1,2,4]triazine-2,4-diamine]
3.28 | Cc1cc(C)nc(CNc2nc(NCc3ccccc3)c3ncc(C(C)C)n3n2)n1 [compound 127, N4-Benzyl-N2-[(4,6-dimethylpyrimidin-2-yl)methyl]-7-isopropyl-imidazo[2,1-f][1,2,4]triazine-2,4-diamine]
3.06 | COC1CCN(c2nc(NCc3cccnc3)c3ncc(C(C)C)n3n2)C1 (stereo not drawn) [compound 80, 7-Isopropyl-2-(3-methoxypyrrolidin-1-yl)-N-(3-pyridylmethyl)imidazo[2,1f][1,2,4]triazin-4-amine]
2.3 | CC(C)c1cnc2c(NCc3cccnc3)nc(N3CCC(O)CC3)nn12 [compound 86, 1-[7-Isopropyl-4-(3-pyridylmethylamino)imidazo[2,1-f][1,2,4]triazin-2-yl]piperidin-4-ol]
3.16 | CC(C)c1cnc2c(NCc3ccccc3)nc(N3CCC(O)C3)nn12 (stereo not drawn) [compound 76, 1-[4-(Benzylamino)-7-isopropyl-imidazo[2,1-f][1,2,4]triazin-2-yl]pyrrolidin-3-ol]
4.64 | CC(C)c1cnc2c(NCc3ccccc3)nc(Nc3ccccc3)nn12 [compound 114, N4-Benzyl-7-isopropyl-N2-phenyl-imidazo[2,1-f][1,2,4]triazine-2,4-diamine]
3.15 | COC1CCN(c2nc(NCc3cccnc3)c3ncc(C(C)C)n3n2)CC1 [compound 82, 7-Isopropyl-2-(4-methoxy-1-piperidyl)-N-(3-pyridylmethyl)imidazo[2,1-f][1,2,4]triazin-4-amine]
3.32 | CC(C)c1cnc2c(NCc3ccccc3)nc(NC(C)(C)CO)nn12 [compound 18, 2-[[4-(Benzylamino)-7-isopropyl-imidazo[2,1-f][1,2,4]triazin-2-yl]amino]-2-methyl-propan-1-ol]
2.16 | CC(C)c1cnc2c(NCc3ccccc3)nc(NCCC3CCCN3C)nn12 (stereo not drawn) [compound 106, N4-Benzyl-7-isopropyl-N2-[2-(1-methylpyrrolidin-2-yl)ethyl]imidazo[2,1-f][1,2,4]triazine-2,4-diamine]
2.98 | CC(C)c1cnc2c(NCc3ccccc3)nc(NCc3cnn(C)c3)nn12 [compound 115, N4-Benzyl-7-isopropyl-N2-[(1-methylpyrazol-4-yl)methyl]imidazo[2,1-f][1,2,4]triazine-2,4-diamine]
3.07 | CC(C)c1cnc2c(NCc3ccccc3)nc(NCc3ccncc3)nn12 [compound 125, N4-Benzyl-7-isopropyl-N2-(4-pyridylmethyl)imidazo[2,1-f][1,2,4]triazine-2,4-diamine]
2.89 | CC(C)c1cnc2c(NCc3ccccc3)nc(Nc3cnn(C)c3)nn12 [compound 110, N4-Benzyl-7-isopropyl-N2-(1-methylpyrazol-4-yl)imidazo[2,1-f][1,2,4]triazine-2,4-diamine]
4.57 | CC(C)c1cnc2c(NCc3ccccc3)nc(NC3CCC(F)(F)CC3)nn12 [compound 60, N4-Benzyl-N2-(4,4-difluorocyclohexyl)-7-isopropyl-imidazo[2,1-f][1,2,4]triazine-2,4-diamine]
4.6 | COC1CCN(c2nc(NCc3ccccc3)c3ncc(C(C)C)n3n2)CC1 [compound 81, N-Benzyl-7-isopropyl-2-(4-methoxy-1-piperidyl)imidazo[2,1-f][1,2,4]triazin-4-amine]
2.2 | CC(C)c1cnc2c(NCc3ccccc3)nc(NCC3CCN(C)CC3)nn12 [compound 104]
3 | Cc1cnc(CNc2nc(NCc3ccccc3)c3ncc(C(C)C)n3n2)cn1 [compound 126]
5.05 | CC(C)c1cnc2c(NCc3ccccc3)nc(N3CCSCC3)nn12 [compound 83, N-Benzyl-7-isopropyl-2-thiomorpholino-imidazo[2,1-f][1,2,4]triazin-4-amine]
3.19 | CC(C)c1cnc2c(NCc3ccccc3)nc(N3CCC(O)CC3)nn12 [compound 85, 1-[4-(Benzylamino)-7-isopropyl-imidazo[2,1-f][1,2,4]triazin-2-yl]piperidin-4-ol]

SMILES | chromatographic logD
CC(C)c1cnc2c(NCc3ccccc3)nc(N3CC4(COC4)C3)nn12 [compound 78, N-Benzyl-7-isopropyl-2-(2-oxa-6-azaspiro[3.3]heptan-6-yl)imidazo[2,1-f][1,2,4]triazin-4-amine] | 3.42
